Test results: PubChem BioAssay (NCI)
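Growth conditions: 96-well plates. Treatment: test compound, 48 hours, 5 concentrations. Analysis: linear interpolation between bracketing concentrations; unreached endpoints set to highest concentration. Here, GI50 denotes the concentration required for 50% inhibition of growth. TGI denotes the concentration required for complete inhibition of growth.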

Experiments:
Test in all cases: NCI anticancer screen, dose series, 48 h
MOLT-4 leukemia = test system: MOLT-4 leukemia
MDA-MB-435 = test system: MDA-MB-435
MDA-MB-231 breast = test system: MDA-MB-231 breast
TK-10 renal = test system: TK-10 renal
NCI-H23 lung = test system: NCI-H23 lung
HCT-15 colon = test system: HCT-15 colon
SK-MEL-28 melanoma = test system: SK-MEL-28 melanoma
HCT-116 colon = test system: HCT-116 colon
NCI-H226 lung = test system: NCI-H226 lung
MALME-3M melanoma = test system: MALME-3M melanoma
UACC-62 melanoma = test system: UACC-62 melanoma
PC-3 prostate = test system: PC-3 prostate
UO-31 renal = test system: UO-31 renal
SNB-19 CNS = test system: SNB-19 CNS
IGROV1 ovarian = test system: IGROV1 ovarian
ACHN renal = test system: ACHN renal
U251 CNS = test system: U251 CNS
UACC-257 melanoma = test system: UACC-257 melanoma
MCF7 breast = test system: MCF7 breast
OVCAR-5 ovarian = test system: OVCAR-5 ovarian
SK-MEL-2 melanoma = test system: SK-MEL-2 melanoma
OVCAR-8 ovarian = test system: OVCAR-8 ovarian
786-0 renal = test system: 786-0 renal
CAKI-1 renal = test system: CAKI-1 renal
K-562 leukemia = test system: K-562 leukemia
SK-OV-3 ovarian = test system: SK-OV-3 ovarian
RXF 393 renal = test system: RXF 393 renal
HCC-2998 colon = test system: HCC-2998 colon
T-47D breast = test system: T-47D breast
SW-620 colon = test system: SW-620 colon
NCI/ADR-RES ovarian = test system: NCI/ADR-RES ovarian
OVCAR-4 ovarian = test system: OVCAR-4 ovarian
SF-295 CNS = test system: SF-295 CNS
BT-549 breast = test system: BT-549 breast
HL-60(TB) leukemia = test system: HL-60(TB) leukemia
A498 renal = test system: A498 renal
SF-268 CNS = test system: SF-268 CNS
KM12 colon = test system: KM12 colon
RPMI-8226 leukemia = test system: RPMI-8226 leukemia
SK-MEL-5 melanoma = test system: SK-MEL-5 melanoma
SNB-75 CNS = test system: SNB-75 CNS
HT29 colon = test system: HT29 colon
COLO 205 colon = test system: COLO 205 colon
SR leukemia = test system: SR leukemia
SN12C renal = test system: SN12C renal
HOP-62 NSCLC = test system: HOP-62 NSCLC
DU-145 prostate = test system: DU-145 prostate
HOP-92 NSCLC = test system: HOP-92 NSCLC
LOX IMVI melanoma = test system: LOX IMVI melanoma
EKVX NSCLC = test system: EKVX NSCLC
NCI-H522 lung = test system: NCI-H522 lung
NCI-H460 lung = test system: NCI-H460 lung
HS 578T breast = test system: HS 578T breast
CCRF-CEM leukemia = test system: CCRF-CEM leukemia
SF-539 CNS = test system: SF-539 CNS
M14 melanoma = test system: M14 melanoma
A549 NSCLC = test system: A549 NSCLC

Structure (SMILES): O=C(NCCN1CCCC1)c1ccc(-c2nc3ccc4[nH]ncc4c3c3c2CCCC3)cc1
- GI50 (MOLT-4 leukemia): 486 nM
- TGI (MOLT-4 leukemia): 2640 nM
- GI50 (MDA-MB-435): 654 nM
- TGI (MDA-MB-435): 3890 nM
- GI50 (MDA-MB-231 breast): 796 nM
- TGI (MDA-MB-231 breast): 2430 nM
- GI50 (TK-10 renal): 443 nM
- TGI (TK-10 renal): 7360 nM
- GI50 (NCI-H23 lung): 802 nM
- TGI (NCI-H23 lung): 2460 nM
- GI50 (HCT-15 colon): 1910 nM
- TGI (HCT-15 colon): 7430 nM
- GI50 (SK-MEL-28 melanoma): 919 nM
- TGI (SK-MEL-28 melanoma): 2680 nM
- GI50 (HCT-116 colon): 252 nM
- TGI (HCT-116 colon): 2020 nM
- GI50 (NCI-H226 lung): 716 nM
- TGI (NCI-H226 lung): 5250 nM
- GI50 (MALME-3M melanoma): 769 nM
- TGI (MALME-3M melanoma): 1650 nM
- GI50 (UACC-62 melanoma): 1200 nM
- TGI (UACC-62 melanoma): 5600 nM
- GI50 (PC-3 prostate): 682 nM
- TGI (PC-3 prostate): 2770 nM
- GI50 (UO-31 renal): 1400 nM
- TGI (UO-31 renal): 6340 nM
- GI50 (SNB-19 CNS): 1130 nM
- TGI (SNB-19 CNS): 5060 nM
- GI50 (IGROV1 ovarian): 351 nM
- TGI (IGROV1 ovarian): 4060 nM
- GI50 (ACHN renal): 1070 nM
- TGI (ACHN renal): 5890 nM
- GI50 (U251 CNS): 717 nM
- TGI (U251 CNS): 2250 nM
- GI50 (UACC-257 melanoma): 1050 nM
- TGI (UACC-257 melanoma): 2440 nM
- GI50 (MCF7 breast): 807 nM
- TGI (MCF7 breast): 4150 nM
- GI50 (OVCAR-5 ovarian): 1390 nM
- TGI (OVCAR-5 ovarian): 4440 nM
- GI50 (SK-MEL-2 melanoma): 726 nM
- TGI (SK-MEL-2 melanoma): 1880 nM
- GI50 (OVCAR-8 ovarian): 798 nM
- TGI (OVCAR-8 ovarian): 3160 nM
- GI50 (786-0 renal): 580 nM
- TGI (786-0 renal): 1350 nM
- GI50 (CAKI-1 renal): 199 nM
- TGI (CAKI-1 renal): 4380 nM
- GI50 (K-562 leukemia): 760 nM
- TGI (K-562 leukemia): 3880 nM
- GI50 (SK-OV-3 ovarian): 232 nM
- TGI (SK-OV-3 ovarian): 2170 nM
- GI50 (RXF 393 renal): 241 nM
- TGI (RXF 393 renal): 955 nM
- GI50 (HCC-2998 colon): 870 nM
- TGI (HCC-2998 colon): 2820 nM
- GI50 (T-47D breast): 1070 nM
- TGI (T-47D breast): 6100 nM
- GI50 (SW-620 colon): 607 nM
- TGI (SW-620 colon): 3140 nM
- GI50 (NCI/ADR-RES ovarian): 10700 nM
- TGI (NCI/ADR-RES ovarian): 50000 nM
- GI50 (OVCAR-4 ovarian): 1050 nM
- TGI (OVCAR-4 ovarian): 5080 nM
- GI50 (SF-295 CNS): 1060 nM
- TGI (SF-295 CNS): 4160 nM
- GI50 (BT-549 breast): 384 nM
- TGI (BT-549 breast): 1160 nM
- GI50 (HL-60(TB) leukemia): 978 nM
- TGI (HL-60(TB) leukemia): 2320 nM
- GI50 (A498 renal): 193 nM
- TGI (A498 renal): 911 nM
- GI50 (SF-268 CNS): 703 nM
- TGI (SF-268 CNS): 1790 nM
- GI50 (KM12 colon): 237 nM
- TGI (KM12 colon): 2910 nM
- GI50 (RPMI-8226 leukemia): 871 nM
- TGI (RPMI-8226 leukemia): 2270 nM
- GI50 (SK-MEL-5 melanoma): 1100 nM
- TGI (SK-MEL-5 melanoma): 2530 nM
- GI50 (SNB-75 CNS): 259 nM
- TGI (SNB-75 CNS): 1850 nM
- GI50 (HT29 colon): 996 nM
- TGI (HT29 colon): 3510 nM
- GI50 (COLO 205 colon): 625 nM
- TGI (COLO 205 colon): 1490 nM
- GI50 (SR leukemia): 94.1 nM
- TGI (SR leukemia): 1900 nM
- GI50 (SN12C renal): 882 nM
- TGI (SN12C renal): 4460 nM
- GI50 (HOP-62 NSCLC): 497 nM
- TGI (HOP-62 NSCLC): 2140 nM
- GI50 (DU-145 prostate): 677 nM
- TGI (DU-145 prostate): 5340 nM
- GI50 (HOP-92 NSCLC): 99.7 nM
- TGI (HOP-92 NSCLC): 864 nM
- GI50 (LOX IMVI melanoma): 622 nM
- TGI (LOX IMVI melanoma): 1360 nM
- GI50 (EKVX NSCLC): 850 nM
- TGI (EKVX NSCLC): 5150 nM
- GI50 (NCI-H522 lung): 289 nM
- TGI (NCI-H522 lung): 1050 nM
- GI50 (NCI-H460 lung): 628 nM
- TGI (NCI-H460 lung): 1570 nM
- GI50 (HS 578T breast): 189 nM
- TGI (HS 578T breast): 1390 nM
- GI50 (CCRF-CEM leukemia): 497 nM
- TGI (CCRF-CEM leukemia): 3270 nM
- GI50 (SF-539 CNS): 515 nM
- TGI (SF-539 CNS): 1170 nM
- GI50 (M14 melanoma): 729 nM
- TGI (M14 melanoma): 1550 nM
- GI50 (A549 NSCLC): 1090 nM
- TGI (A549 NSCLC): 5540 nM
